Holding throughout (format): cell-based
Assay [1] concerns E. coli K-12. In words: MIC by agar plate dilution method, E. coli K-12. The following applies: for MIC: Escherichia coli, K12, seeding 10^6 cells/ml, read-out: minimum inhibitory concentration (MIC). The procedure: (§1) Each series of dilution was prepared with use of testing compounds prepared by the Examples and control compound of Gentamicin as well as a liquid medium. The minimum inhibitory concentration (MIC in μg/ml) to each pathogen (seeding amount: 10^6 cells/ml) was determined, in accordance with the standard method (agar plate dilution method) by the Chemotherapy Society of Japan.

For assay [2], the system named is P. aeruginosa Nc-5. In words: MIC by agar plate dilution method, P. aeruginosa Nc-5. As to conditions: for MIC: Pseudomonas aeruginosa, NC5, seeding 10^6 cells/ml, read-out: minimum inhibitory concentration (MIC). The procedure:
as §1

Assay [3] has as its system E. coli NIH. The experiment in a line: MIC by agar plate dilution method, E. coli NIH. As to conditions: seeding 10^6 cells/ml; for MIC: Escherichia coli, read-out: minimum inhibitory concentration (MIC). As for the experimental part: as §1
The subject of assay [4] is S. flexneri 2a EW-10. In words: MIC by agar plate dilution method, S. flexneri 2a EW-10. As to conditions: Shigella flexneri, 2AEW10, seeding 10^6 cells/ml, read-out: minimum inhibitory concentration (MIC). The procedure: as §1
Assay [5] has as its system P. vulgaris OX-19. The experiment in a line: MIC by agar plate dilution method, P. vulgaris OX-19. As to conditions: for MIC: Proteus vulgaris, OX19, seeding 10^6 cells/ml, read-out: minimum inhibitory concentration (MIC). As for the experimental part:
as §1

The test system of assay [6] is P. rettgeri NIH 96. The experiment in a line: MIC by agar plate dilution method, P. rettgeri NIH 96. The following applies: for MIC: Providencia rettgeri, NIH96, seeding 10^6 cells/ml, read-out: minimum inhibitory concentration (MIC). As for the experimental part:
as §1

Assay [7] deals with S. typhi T-287. The experiment in a line: MIC by agar plate dilution method, S. typhi T-287. The following applies: seeding 10^6 cells/ml; for MIC: Salmonella enterica, read-out: minimum inhibitory concentration (MIC). As for the experimental part:
as §1

Assay [8] has as its system K. pneumoniae NCTC 9632. The experiment in a line: MIC by agar plate dilution method, K. pneumoniae NCTC 9632. As to conditions: for MIC: Klebsiella pneumoniae, NCTC9632, seeding 10^6 cells/ml, read-out: minimum inhibitory concentration (MIC). The procedure: as §1
Assay [9] deals with C. fleundii NIH 10018-68. In words: MIC by agar plate dilution method, C. fleundii NIH 10018-68. As to conditions: for MIC: read-out: minimum inhibitory concentration (MIC). As for the experimental part: as §1

Structures can show the parent of a compound that is named as a salt. Where only a bound is given, the exact number is not on record here.

Regarding `CO/N=C(\C(=O)N[C@@H]1C(=O)N2C(C(=O)[O-])=C(C[n+]3ccc([Si](C)(C)C)cc3)CS[C@H]12)c1csc(N)n1` [Example 2, [6R-[6α,7β(Z)]]-1-[7-[[(2-Amino-4-thiazolyl)(methoxyimino)acetyl]amino]-2-carboxy-8-oxo-5-thia-1-azabicyclo[4,2,0]oct-2-en-3-yl]methyl-4-trimethylsilylpyridinium hydroxide, inner salt], the MIC in assay [1] is 0.78 µg/mL; in assay [2], 6.25 µg/mL; in assay [3], less than 0.2 µg/mL; in assay [4] it was 0.39 µg/mL; in [5], less than 0.2 µg/mL; in [6], less than 0.2 µg/mL. The values for the MIC in assay [7], in assay [8] and in assay [9] were 0.39 µg/mL, 0.78 µg/mL and less than 0.2 µg/mL, respectively.

In the case of Gentamicin [reference compound], the “minimum inhibitory concentration (MIC)” value in [1] (seeding 10^6 cells/ml) was 0.78 µg/mL; in assay [2] (seeding 10^6 cells/ml), 3.13 µg/mL; in [3], 0.78 µg/mL; in [5] (seeding 10^6 cells/ml), 3.13 µg/mL; in [6] (seeding 10^6 cells/ml), less than 0.20 µg/mL; in assay [7], 0.78 µg/mL. Moreover, the “minimum inhibitory concentration (MIC)” value in assay [8] (seeding 10^6 cells/ml) turned out to be 0.78 µg/mL; in [9] (C. fleundii NIH 10018-68, seeding 10^6 cells/ml, agar plate dilution) it was 0.39 µg/mL.

In the case of `CO/N=C(\C(=O)N[C@@H]1C(=O)N2C(C(=O)[O-])=C(C[n+]3ccc(OC)c([Si](C)(C)C)c3)CS[C@H]12)c1csc(N)n1` [Example 3, [6R-[6α,7β(Z)]]-1-[7-[[(2-Amino-4-thiazolyl)(methoxyimino)acetyl]amino]-2-carboxy-8-oxo-5-thia-1-azabicyclo[4,2,0]oct-2-en-3-yl]methyl-4-methoxy-3-trimethylsilylpyridinium hydroxide, inner salt], the MIC in assay [1] was 0.78 µg/mL; in assay [2], 6.25 µg/mL; in [3] it was 0.78 µg/mL; in assay [4] it was 0.39 µg/mL; in assay [5], less than 0.2 µg/mL; in [6], less than 0.2 µg/mL. The MIC in assay [7] was 0.39 µg/mL; in assay [8] it was 0.78 µg/mL; in [9] it was 0.78 µg/mL.

For the compound `CO/N=C(\C(=O)N[C@@H]1C(=O)N2C(C(=O)[O-])=C(C[n+]3cccc([Si](C)(C)C)c3)CS[C@H]12)c1csc(N)n1` [Example 1, [6R-[6α,7β(Z)]]-1-[7-[[(2-Amino-4-thiazolyl)(methoxyimino)acetyl]amino]-2-carboxy-8-oxo-5-thia-1-azabicyclo[4,2,0]oct-2-en-3-yl]methyl-3-trimethylsilylpyridinium hydroxide, inner salt], the MIC in assay [1] is 0.39 µg/mL; in assay [2], 1.56 µg/mL; in [3] it was less than 0.2 µg/mL; in assay [4] it was less than 0.2 µg/mL; in assay [5], less than 0.2 µg/mL; in assay [6] it was less than 0.2 µg/mL. The results for the MIC in assay [7], in [8] and in assay [9] were less than 0.2 µg/mL, 0.39 µg/mL and less than 0.2 µg/mL, respectively.

These data come from patent US4857521A, “Trialkylsilyl pyridinium cephalosporin antibiotics” (Sanwa Kagaku Kenkyusho Co., Ltd., priority 1986, dated 1989).
